From patent US6458766B1, “Halovir, an antiviral marine natural product, and derivatives thereof” (The Regents of the University of California, priority 1998, dated 2002)
Like-named read-outs stand apart in the source and are kept apart here. Non-standard residues stand in square brackets, D forms with d. Residues, ends and D or L forms follow the SMILES beside them. *: point of attachment. Myristoyl = CCCCCCCCCCCCCC(=O)*; Hyp = O=C(O)[CH]1C[CH](O)CN1; Leu(ol) = CC(C)C[CH](N)CO; X1 = CC(=O)OCC(CC(C)C)N*; Aib = CC(C)(N)C(=O)O

How the values were obtained:
[1] = tested on: HSV-1; assay type: cell-based, Herpes simplex virus
Description: Four experimental solutions were prepared.
Solution 1: Viral Inactivation
HSV-1 was diluted to 50,000 pfu/ml in 1.35 mL MEM with 0% Fetal Bovine Serum (0% MEM). This was treated with 8.2 μL of a solution of Halovir A dissolved in DMSO at a concentration of 25 mg/mL.
Solution 2: DMSO Inactivation Control
Solution 2 was prepared in an identical manner as solution 1, except that pure DMSO was added to the viral suspension.
This experiment provides a baseline for 100% cell survival. Solution 3 was prepared with 1.35 mL 0% MEM with 8.2 μL DMSO.
Solution 4: Normal Assay Conditions
Virus was diluted in 1.36 mL 0% MEM to a final concentration of 50,000 pfu/mL. No DMSO or Halovir A was added.
All solutions were vortexed for 30 seconds and then shaken at ambient temperature for 2.5 hours. They were then vortexed for 30 seconds, and 100 μL of each was diluted with 9.9 mL of 0% MEM (100×dilution). The diluted solutions are herein referred to as solutions 1-4.
96-well microtiter plates were prepared with Vero cells overnight, washed with PBS, and aspirated as previously described. 100 μL of Solution 1 was added to each well of a microtiter plate containing cells. This was repeated for Solutions 2-4. The plates were incubated at 37° C. and 5% CO2. After one hour, experiment plates prepared with Solutions 1-3 were overlaid with 100 μL of 2% MEM. […]

[2] = tested on: HSV-1; experiment: MTT assay for antiviral activity against HSV-1 in Vero cells; assay type: cell-based, Herpes simplex virus; conditions: for antiviral activity against HSV-1: pure compounds from C18 HPLC of active fractions; for cells subjected to infection protected: test concentration 2.5 μg/mL, Vero cells, 50 pfu virus, five days incubation
Description: Antiviral activity of the halovirs was determined in vitro against the. HSV-I by an MTT assay (Hitoshi Takeuchi, An application of tetrazolium (MTT) calorimetric assay for screening of anti-herpes simplex virus compounds, Journal of Virological Methods, 33 (1991) 61-71), modified as follows. Vero cells were plated at a concentration of 10,000 cells/well in 100 μL of minimum essential medium (MEM) containing 5% fetal bovine serum (FBS) in 96-well plates. The cells were incubated overnight at 37° C. and 5% CO2. The media was removed by aspiration, and 100 μL of phosphate buffered saline (PBS) was added to each well and then aspirated. The wells were treated with 100 μL of MEM containing 50 plaque forming units (pfu) of virus and incubated for one hour. Each well was then overlayed with 100 μL of media containing 2% FBS and serial dilutions of an appropriate halovir solution. The halovir solution was previously prepared by dissolving the halovir in DMSO. After incubation for five days, each well was treated with 20 μL of a solution of 10 mg/mL of MTT in PBS. […] The media was carefully aspirated, and 100 μL of acidified isopropanol was added to dissolve any formazan produced. Acidified isopropanol solution is prepared by adding 50 mL Triton X100 and 2 mL concentrated HCL to 450 mL isopropanol. The optical density of the wells at 550 nm was determined using an ELISA plate reader. The amount of formazan present is directly proportional to the number of surviving cells in a given well. The amount of formazan were spectrophotometrically measured in wells with no antiviral agent and virus to establish a quantitative standard for 100% cell survival. Similarly wells with only virus were measured and used to establish a quantitative standard for 0% cell survival. At a test concentration of 2.5 μg/mL, Halovirs A, B, C, and D protected 50%, 40%, 33%, and 55%, respectively, of the cells subjected to infection.

Structure (SMILES)	mean optical density at 550 nm (OD) ([1]; Solution 1: HSV-1 treated with Halovir A for 2.5 hours, 100x dilution, then added to Vero cells, mean of 80 wells)	mean optical density at 550 nm (OD) ([1]; Solution 4: normal assay conditions, untreated virus, overlay with 2% MEM containing 1.5 μg/mL Halovir A after one hour)	antiviral activity against HSV-1 [2]	cells subjected to infection protected [2]
CCCCCCCCCCCCCC(=O)NC(C)(C)C(=O)N1CC(O)CC1C(=O)NC(CC(C)C)C(=O)NC(C(=O)NC(CCC(N)=O)C(=O)NC(CO)CC(C)C)C(C)C (stereo not drawn) [Halovir A, CH3(CH2)12C(O)-Aib-Hyp-Leu-Val-Gln-Leu(OH)] (Myristoyl-[Aib][Hyp]LVQ[Leu(ol)]; configuration not given here)	1.18	0.32	potent antiviral activity	50%
CCCCCCCCCCCCCC(=O)NC(C)(C)C(=O)N1CC(O)CC1C(=O)NC(CC(C)C)C(=O)NC(C)C(=O)NC(CCC(N)=O)C(=O)NC(CO)CC(C)C (stereo not drawn) [Halovir B, CH3(CH2)12C(O)-Aib-Hyp-Leu-Ala-Gln-Leu(OH)] (Myristoyl-[Aib][Hyp]LAQ[Leu(ol)]; configuration not given here)			potent antiviral activity	40%
CCCCCCCCCCCCCC(=O)NC(C)(C)C(=O)N1CCCC1C(=O)NC(CC(C)C)C(=O)NC(C(=O)NC(CCC(N)=O)C(=O)NC(CO)CC(C)C)C(C)C (stereo not drawn) [Halovir C, CH3(CH2)12C(O)-Aib-Pro-Leu-Val-Gln-Leu(OH)] (Myristoyl-[Aib]PLVQ[Leu(ol)]; configuration not given here)			potent antiviral activity	33%
CCCCCCCCCCCCCC(=O)NC(C)(C)C(=O)N1CC(OC(C)=O)CC1C(=O)NC(CC(C)C)C(=O)NC(C(=O)NC(CCC(N)=O)C(=O)NC(COC(C)=O)CC(C)C)C(C)C (stereo not drawn) [Halovir D, CH3(CH2)12C(O)-Aib-Hyp(OAc)-Leu-Val-Gln-Leu(OAc)] (Myristoyl-[Aib][Hyp](Ac)LVQ-X1; configuration not given here)				55%
